{"source": "patent US20220126077A1", "about": "“Treatment for Dry Eyes” (priority 2020, published 2022)", "test_system": "lacrimal glands", "test": "Experimentation with balm ingredients applied to the skin adjacent the eyes: tear production", "type": "in vivo", "conditions": "vapor released over time", "from_the_text": "The formulation particularly preferred for the balm includes caffeine, in a medically useful amount, which, when applied to the skin adjacent the eyes, promotes blood circulation thereto. Additionally included is menthol in a medically useful amount, which is included to release a vapor over a period of time subsequent to application to the skin.\nBy adjacent to the eye is meant the skin area on the face which is below the lower eye lid, and between the end of the nose of the user and the outside end of the eye of the user which is closest to the ear on the same side as the eye being treated.\nThe plurality of active ingredients have been found, in experimentation when employed together, to have a beneficial synergistic effect which is well beyond the effect of the individual ingredients when employed in a balm by themselves. Currently, an active ingredient portion of the total volume of the balm mixture, includes a combination of active ingredients blended and combined to an active ingredient portion of the total balm mixture. This active ingredient portion of the total mixture ranges from 20 to 60 percent of the total volume of the balm mixture. […]"}
{"compound": "CC1CCC(C(C)C)C(O)C1", "note": "(stereo not shown) [menthol, Menthol]", "values": [{"measurement": "production of tears by the lacrimal glands", "result": "stimulate the lacrimal glands to produce tears"}]}
